# From patent publication US11590154B2, “Triple antibiotic fixed-dose combination products, dosing regimen, methods, and kits for treating pulmonary non-tuberculosis mycobacterial infections” (priority 2020, dated 2023)
# Entries after “also recorded” stand apart in the source; their conditions may differ.
# How the values were obtained:
# [1] = system: intracellular MAC in THP-1 monocytes; assay: Hollow fiber system model of MAC (HFS-MAC): microbial kill; type: cell-based, Mycobacterium avium complex; conditions: HF experiments
# Procedure: The anti-mycobacterial effects of CLR, CFZ, and RFB was evaluated in the hollow fiber system model of MAC (HFS-MAC), which recapitulates the intrapulmonary concentrations of these antibiotics. The HFS-MAC allows for an assessment of the contribution of individual drug components in terms of anti-mycobacterial effects and enables exploration of potential synergy, additivity, or antagonism of different doses of drugs and combination regimens on the log-phase growth of intracellular MAC, for both microbial kill and resistance suppression.
# A two-part investigation was conducted to assess the contribution of components of various FDC products comprising CLR, CFZ, and RFB in terms of depth and rate of MAC kill and suppression of the emergence of resistance. The anti-MAC activity of each antibiotic component was evaluated as one-drug alone; as two-drug combinations and the three-drug combination. For each combination (singlet, doublet or triplet), the drug concentrations were sampled from the HF fluid bathing MAC-infected cells. […] Anti-MAC activity was evaluated by kill slopes defined as the kill rate constant (and the half-life of kill [reciprocal of the kill rate constant]) as well as the maximum kill, defined as the maximum reduction in MAC CFUs and compared between the different antibiotic combinations.
# MAC was grown into log-phase for 4 days, parallel with cultivation of THP-1 monocytes. The THP-1 cells were then infected with MAC overnight at a multiplicity of infection of 1:1. The THP-1 cells were washed to remove extracellular bacteria, and 20 mL of 1×10^6 (6.0 log10) cells/mL were inoculated into each HFS-MAC on Study Day 0. The peripheral compartment is the abluminal hollow fibers space that is also enclosed by the plastic, while the intraluminal space and flow path form the central compartment. […]
# MAC [2] = assay: Lung histopathology of mice infected with MAC and treated for four and eight weeks; type: in vivo, Mycobacterium avium complex; conditions: 32 sections per group
# Text: Lung and Spleen Histopathology of Mice Infected with MAC and Treated with FDC Components Alone and in Combination for Four and Eight Weeks of Treatment
# Each of the experimental group had eight cut examined from each lung (8×2 lungs=16×2 mice=32 sections). Lungs were normal and not showing any pathology at pre-infection.
# M. avium strain 104 = assay: Mouse lung infection model, clarithromycin sensitive strain; type: in vivo, Mycobacterium avium subsp. hominissuis; conditions: for reduction in CFU relative to vehicle: 50 mg/kg
# Procedure: (§1) Following both the four-week and eight-week treatment period, mice were sacrificed, and lungs and spleens were harvested for CFU counts in each tissue and compared to CFUs recovered in the baseline and vehicle-treated groups. Tissue samples were plated with and without antibiotic on 7H10 agar. Antibiotic plates were made with minimum inhibitory concentrations (MICs) of 8 μg/ml for clarithromycin, and 0.25, μg/ml for both rifabutin (RFB) and clofazimine (CFZ). Plates were made for each of clarithromycin (CLR) alone, clarithromycin plus either rifabutin (CLR+RFB) or clofazimine (CLR+CFZ) and the three-drug combination (CLR+RFB+CFZ). All plates were incubated in a microbiological incubator at 37° C. for 14 days.
# [3] = 7-day mouse tolerability and PK study; conditions: for Cavg (clarithromycin) / Cavg (rifabutin): AUCtlast/24 h; for AUC(0-t) / Cmax / Tmax: female, C57BL/6, mouse, po
# Procedure: Sixty (60) female mice were tested, 12 per treatment groups: […]
# NTM = conditions: mouse models of systemic and lung infection; preclinical literature; cited from earlier work
# MAC bacteria = type: cell-based, Mycobacterium avium complex; conditions: 2×MIC; starting inoculum 5.5 log10 CFU/ml
# Procedure: In vitro, efficacy was studied in static time-kill kinetics assays (at 2×minimum inhibitory concentration [MIC]), intended to mirror a desired peak serum concentration for all three antibiotics using an established assay. All experiments were performed with a starting inoculum of 5.5 log10 CFU/ml MAC bacteria, higher than the bacterial load expected in the airway secretions of patients with mild nodular-bronchiectatic disease due to MAC.
# M. avium 104 biofilm = assay: In vitro biofilm model of infection; type: cell-based, Mycobacterium avium subsp. hominissuis; conditions: mean ± SD; CLR 1.9-4.3 μg/mL, RFB 0.04 μg/mL, CFZ 0.0005 μg/mL
# M. avium = assay: MIC of antibiotics by broth microdilution, M. avium strains of Examples 3 and 4; type: cell-based, Mycobacterium avium subsp. hominissuis; conditions: for minimum inhibitory concentrations (MICs) used for antibiotic plates: 7H10 agar plates for tissue CFU counts
# Procedure: Susceptibility testing was conducted using broth microdilution single and twofold dilutions as described in the literature. Suspensions were prepared by swabs on a growth plate with a sterile cotton swab, or were prepared in broth culture. The growth was transferred to a 4.5 mL of phosphate buffer solution (PBS) until the turbidity matched the density of a 0.5 McFarland standard. Suspensions were then vigorously mixed on a vortex mixer for 15 to 20 seconds. The final inoculum was prepared to a bacterial density of 10^5. The tube was inverted 8-10 times to mix the suspension.
# as §1
# MAC [4] = assay: MIC of the MAC strains used in the HFS-MAC studies; type: cell-based, Mycobacterium avium complex; conditions: Mycobacterium avium
# Procedure: The MAC strain used in the HFS-MAC studies was ATCC strain 700898. The study center also had 5 well-characterized clinical strains that have undergone whole-genome sequencing and habituation to the HFS-MAC. Stock cultures of MAC were stored at −80° C. in Middlebrook 7H9 broth with 10% OADC and 10% glycerol. THP-1 monocytes were stored in liquid nitrogen and have been habituated for the HFS-MAC growth conditions.
# [5] = epithelial lining fluid to total plasma/serum; cited from earlier work
# [6] = ATCC700898, MAC (ATCC 700898), laboratory strain
smiles,measurement,setting,value
"CC[C@H]1OC(=O)[C@H](C)[C@@H](O[C@H]2C[C@@](C)(OC)[C@@H](O)[C@H](C)O2)[C@H](C)[C@@H](O[C@@H]2O[C@H](C)C[C@H](N(C)C)[C@H]2O)[C@](C)(OC)C[C@@H](C)C(=O)[C@H](C)[C@@H](O)[C@]1(C)O [Clarithromycin, clarithromycin]","effect on CFUs / MAC killing, summary",[1],reductions in colony forming units
same,Lung Histopathology Findings,MAC [2],Diffuse congestion; bacteria in granulomas
same,reduction in CFU relative to vehicle,M. avium strain 104; after eight weeks of treatment,~2 log unit
same,reduction in CFU relative to vehicle,M. avium strain 104; after four weeks of treatment,approximately 1 log unit
same,CFUs resistant to clarithromycin in one animal,M. avium strain 104; clarithromycin monotherapy treatment,200 CFUs
same,Cavg (clarithromycin),"[3]; Day 7, CLR 100 mg/kg alone",729 ng/mL
same,Cavg (clarithromycin),"[3]; Day 7, CLR 200 mg/kg alone","1,425 ng/mL"
same,Cavg (clarithromycin),"[3]; Day 7, CLR 200 mg/kg with RFB 60 mg/kg and CFZ 30 mg/kg","2,704 ng/mL"
same,AUC(0-t),"[3]; plasma, 100 mg/kg, AUCtlast (clarithromycin), Day 1, CLR 100 mg/kg alone, oral, mouse plasma",11100 ng·h/mL
same,AUC(0-t),"[3]; plasma, 100 mg/kg, AUCtlast (clarithromycin), Day 7, CLR 100 mg/kg alone, oral once daily, mouse plasma",17500 ng·h/mL
same,Cmax,"[3]; plasma, 100 mg/kg, Cmax (clarithromycin), Day 1, CLR 100 mg/kg alone, oral, mouse plasma",3400 ng/mL
same,Cmax,"[3]; plasma, 100 mg/kg, Cmax (clarithromycin), Day 7, CLR 100 mg/kg alone, oral once daily, mouse plasma",6130 ng/mL
same,Tmax,"[3]; plasma, 100 mg/kg, tmax (clarithromycin), Day 1, CLR 100 mg/kg alone, oral, mouse plasma",1 h
same,Tmax,"[3]; plasma, 100 mg/kg, tmax (clarithromycin), Day 7, CLR 100 mg/kg alone, oral once daily, mouse plasma",1 h
same,AUC(0-t),"[3]; plasma, 200 mg/kg, AUCtlast (clarithromycin), Day 1, CLR 200 mg/kg alone, oral, mouse plasma",36200 ng·h/mL
same,AUC(0-t),"[3]; plasma, 200 mg/kg, AUCtlast (clarithromycin), Day 1, CLR 200 mg/kg with RFB 60 mg/kg and CFZ 30 mg/kg, oral, mouse plasma",44200 ng·h/mL
same,AUC(0-t),"[3]; plasma, 200 mg/kg, AUCtlast (clarithromycin), Day 7, CLR 200 mg/kg alone, oral once daily, mouse plasma",34200 ng·h/mL
same,AUC(0-t),"[3]; plasma, 200 mg/kg, AUCtlast (clarithromycin), Day 7, CLR 200 mg/kg with RFB 60 mg/kg and CFZ 30 mg/kg, oral once daily, mouse plasma",64900 ng·h/mL
same,Cmax,"[3]; plasma, 200 mg/kg, Cmax (clarithromycin), Day 1, CLR 200 mg/kg alone, oral, mouse plasma",9110 ng/mL
same,Cmax,"[3]; plasma, 200 mg/kg, Cmax (clarithromycin), Day 1, CLR 200 mg/kg with RFB 60 mg/kg and CFZ 30 mg/kg, oral, mouse plasma",8370 ng/mL
same,Cmax,"[3]; plasma, 200 mg/kg, Cmax (clarithromycin), Day 7, CLR 200 mg/kg alone, oral once daily, mouse plasma",7430 ng/mL
same,Cmax,"[3]; plasma, 200 mg/kg, Cmax (clarithromycin), Day 7, CLR 200 mg/kg with RFB 60 mg/kg and CFZ 30 mg/kg, oral once daily, mouse plasma",10100 ng/mL
same,Tmax,"[3]; plasma, 200 mg/kg, tmax (clarithromycin), Day 1, CLR 200 mg/kg alone, oral, mouse plasma",1 h
same,Tmax,"[3]; plasma, 200 mg/kg, tmax (clarithromycin), Day 1, CLR 200 mg/kg with RFB 60 mg/kg and CFZ 30 mg/kg, oral, mouse plasma",1 h
same,Tmax,"[3]; plasma, 200 mg/kg, tmax (clarithromycin), Day 7, CLR 200 mg/kg alone, oral once daily, mouse plasma",1 h
same,Tmax,"[3]; plasma, 200 mg/kg, tmax (clarithromycin), Day 7, CLR 200 mg/kg with RFB 60 mg/kg and CFZ 30 mg/kg, oral once daily, mouse plasma",1 h
same,Effective Dose,NTM,50 to 100 mg/kg/day
same,activity as single drugs,MAC bacteria,bacteriostatic activity
same,"Colony Forming Unit Concentration, Four Days",M. avium 104 biofilm,1.35 ± 0.3 × 10^7 CFU/mL
same,"Colony Forming Unit Concentration, Seven Days",M. avium 104 biofilm,1.07 ± 0.3 × 10^7 CFU/mL
same,minimum inhibitory concentrations (MICs) used for antibiotic plates,M. avium,8 µg/mL
same,MIC,"M. avium; Mycobacterium avium, clarithromycin resistant sub-subpopulation, 23 S RNA gene mutation",> 128 µg/mL
same,MIC,MAC [4]; [6],0.25 µg/mL
same,MIC,MAC [4]; Clinical strain #1,0.125 µg/mL
same,MIC,MAC [4]; Clinical strain #2,0.5 µg/mL
same,MIC,MAC [4]; Clinical strain #3,32 µg/mL
same,MIC,MAC [4]; Clinical strain #4,0.25 µg/mL
same,MIC,MAC [4]; Clinical strain #5,0.125 µg/mL
same,ELF:plasma ratio,[5],3.4-7.8
"CO[C@H]1/C=C/O[C@@]2(C)Oc3c(C)c(O)c4c(c3C2=O)C2=NC3(CCN(CC(C)C)CC3)NC2=C(NC(=O)/C(C)=C\C=C\[C@H](C)[C@H](O)[C@@H](C)[C@@H](O)[C@@H](C)[C@H](OC(C)=O)[C@@H]1C)C4=O [Rifabutin, rifabutin]","effect on CFUs / MAC killing, summary",[1],CFU counts increased
same,Lung Histopathology Findings,MAC [2],Diffuse congestion; also recorded: Infiltrates of lymphocytes are also observed in multiple locations
same,Cavg (rifabutin),"[3]; Day 7, RFB 20 mg/kg alone","1,117 ng/mL"
same,Cavg (rifabutin),"[3]; Day 7, RFB 60 mg/kg alone","2,558 ng/mL"
same,Cavg (rifabutin),"[3]; Day 7, RFB 60 mg/kg with CLR 200 mg/kg and CFZ 30 mg/kg","4,541 ng/mL"
same,Tmax,"[3]; in vivo, 20 mg/kg",1 h
same,AUC(0-t),"[3]; in vivo, 20 mg/kg, AUCtlast (rifabutin), Day 1, RFB 20 mg/kg alone, oral, mouse plasma",22100 ng·h/mL
same,AUC(0-t),"[3]; in vivo, 20 mg/kg, AUCtlast (rifabutin), Day 7, RFB 20 mg/kg alone, oral once daily, mouse plasma",26800 ng·h/mL
same,Cmax,"[3]; in vivo, 20 mg/kg, Cmax (rifabutin), Day 1, RFB 20 mg/kg alone, oral, mouse plasma",2310 ng/mL
same,Cmax,"[3]; in vivo, 20 mg/kg, Cmax (rifabutin), Day 7, RFB 20 mg/kg alone, oral once daily, mouse plasma",3140 ng/mL
same,Tmax,"[3]; in vivo, 60 mg/kg",1 h
same,AUC(0-t),"[3]; in vivo, 60 mg/kg, AUCtlast (rifabutin), Day 1, RFB 60 mg/kg alone, oral, mouse plasma",60200 ng·h/mL
same,AUC(0-t),"[3]; in vivo, 60 mg/kg, AUCtlast (rifabutin), Day 1, RFB 60 mg/kg with CLR 200 mg/kg and CFZ 30 mg/kg, oral, mouse plasma",60400 ng·h/mL
same,AUC(0-t),"[3]; in vivo, 60 mg/kg, AUCtlast (rifabutin), Day 7, RFB 60 mg/kg alone, oral once daily, mouse plasma",61400 ng·h/mL
same,AUC(0-t),"[3]; in vivo, 60 mg/kg, AUCtlast (rifabutin), Day 7, RFB 60 mg/kg with CLR 200 mg/kg and CFZ 30 mg/kg, oral once daily, mouse plasma",109000 ng·h/mL
same,Cmax,"[3]; in vivo, 60 mg/kg, Cmax (rifabutin), Day 1, RFB 60 mg/kg alone, oral, mouse plasma",5650 ng/mL
same,Cmax,"[3]; in vivo, 60 mg/kg, Cmax (rifabutin), Day 1, RFB 60 mg/kg with CLR 200 mg/kg and CFZ 30 mg/kg, oral, mouse plasma",5300 ng/mL
same,Cmax,"[3]; in vivo, 60 mg/kg, Cmax (rifabutin), Day 7, RFB 60 mg/kg alone, oral once daily, mouse plasma",5760 ng/mL
same,Cmax,"[3]; in vivo, 60 mg/kg, Cmax (rifabutin), Day 7, RFB 60 mg/kg with CLR 200 mg/kg and CFZ 30 mg/kg, oral once daily, mouse plasma",5720 ng/mL
same,Effective Dose,NTM,10 mg/kg/day
same,activity as single drugs,MAC bacteria,bacteriostatic activity
same,"Colony Forming Unit Concentration, Four Days",M. avium 104 biofilm,1.41 ± 0.5 × 10^7 CFU/mL
same,"Colony Forming Unit Concentration, Seven Days",M. avium 104 biofilm,1.64 ± 0.3 × 10^7 CFU/mL
same,minimum inhibitory concentrations (MICs) used for antibiotic plates,M. avium,0.25 µg/mL
same,MIC,MAC [4]; [6],0.0625 µg/mL
same,MIC,MAC [4]; Clinical strain #1,0.125 µg/mL
same,MIC,MAC [4]; Clinical strain #2,0.125 µg/mL
same,MIC,MAC [4]; Clinical strain #3,0.125 µg/mL
same,MIC,MAC [4]; Clinical strain #4,2 µg/mL
same,MIC,MAC [4]; Clinical strain #5,0.125 µg/mL
CO[C@H]1/C=C/O[C@@]2(C)Oc3c(C)c(O)c4c(O)c(c(/C=N/N5CCN(C)CC5)c(O)c4c3C2=O)NC(=O)/C(C)=C\C=C\[C@H](C)[C@H](O)[C@@H](C)[C@@H](O)[C@@H](C)[C@H](OC(C)=O)[C@@H]1C [rifampin],ELF:plasma ratio,[5],approximately 0.34
